# Read-outs that look alike come from different tables or passages of the source.
# What was measured:
# [1] = tested on: red blood cell SNO-Hb; test: Circulating SNO-Hb following brain death in swine ventilated with ENO (Example 1); type: in vivo; conditions: 12 hours after brain death
# Procedure: The level of circulating SNO-Hb following brain death in three groups of swine was measured. […] FIG. 1 is a bar graph illustrating the results of administering ENO to an organ after brain death.
# [2] = Creatinine and AST levels following brain death in swine with or without ENO (Example 2); type: in vivo
# Procedure: The levels of creatinine and aspartate aminotransferase (AST) were monitored in two groups of swine following brain death. The level of creatinine is indicative of kidney function. The level of AST is indicative of liver function. For each groups a base line blood sample was taken, brain death was induced, and the second sample was taken after 12 h with or without 50 ppm ENO mixed into the ventilation circuit. […] AST increased in both groups but the magnitude of the increase with ENO was half that observed in the control group (35 to 79 U/l v. 30 to 145 U/l).
# [3] = Physiological response of sheep to simulated altitude with or without ENO (Example 12); type: in vivo; conditions: simulated altitude −4,500 meters, inhalation of 50 ppm ENO
# [4] = ENO administration to organ donors before or during organ procurement (Examples 8-11); type: in vivo, human
# Procedure: A living kidney donor is administered ENO via inhalation during an open nephrectomy or as part of the insufflation gas during a laparoscopic donor nephrectomy. ENO is provided in pressurized cylinders for delivery through the ventilation or insufflation devices. The amount of ENO delivered can be titrated based on blood gas or organ blood flow changes.
# A catheter is placed in a large vein of a brain dead patient. The catheter contains a cylindrical bundle of microporous hollow fiber membranes woven into a mat at the end. The catheter is placed within the central venous blood stream in the primary vein that returns blood to the heart. […] A respiratory system is activated and oxygen with 50 ppm ENO flows from a console outside the patient, through the catheter and through the hollow fibers. The fiber membranes are permeable to gases. As a result, oxygen and ENO diffuses into the blood stream from the fibers, while carbon dioxide (CO2) diffuses out of the blood stream into the fibers. Excess O2 and CO2 are removed back through the catheter to the external console.
# Patient on respiratory is pronounced dead. Creatine phosphokinase (CPK) leak is indicative of cardiac injury. Patient is started on ENO 20 ppm and further CPK leak is prevented.
# Patient dies. […] Kidney function is preserved over durations usually associated with decline in function.
# [5] = Brain dead cat ventilated with ENO before kidney donation (Example 20); type: in vivo; conditions: Example 20: brain dead cat ventilated with oxygen and 50 ppm ENO, 24 hours
# Source text: A pet owner presents at a state veterinary college with her cat that was recently struck by car. […] The owner is informed that her cat is brain dead and then provided details about a feline kidney donation program—the owner agrees to have her pet's kidneys transplanted. The animal is intubated and ventilated with oxygen augmented with 50 ppm ENO to preserve organ physiologic status while potential recipients are identified. Two clients of the vet school who own cats with end-stage renal disease are contacted and are grateful for the opportunity to have their pets receive a healthy kidney.
# [6] = design: species or system human; conditions: in vivo
# [7] = Example 11: deceased patient, ENO 20 ppm
smiles,measurement,setting,value
"CCON=O [ENO, ethyl nitrite]",change from baseline in red blood cell SNO-Hb concentration,[1]; swine ventilated with 20 ppm ENO,an increase in SNO-Hb
same,change from baseline in red blood cell SNO-Hb concentration,[1]; swine ventilated with 50 ppm ENO,an increase in SNO-Hb
same,"AST level, second sample after 12 h","[2]; 50 ppm ENO in ventilation circuit, 12 h after brain death",79 U/l
same,creatinine level (kidney function),"[2]; 50 ppm ENO in ventilation circuit, 12 h after brain death vs base line",unchanged
same,magnitude of the AST increase relative to control group,"[2]; 50 ppm ENO, 12 h after brain death",half
same,"AST level, base line sample","[2]; ENO group, base line before brain death",35 U/l
same,"cardiac output, hypoxia/high-altitude-induced increase",[3],reducing
same,"pulmonary arterial pressure (PAP), hypoxia/high-altitude-induced increase",[3],reducing
same,"pulmonary vascular resistance (PVR), hypoxia/high-altitude-induced increase",[3],reducing
same,systemic vascular resistance (SVR),[3],restoring SVR
same,kidney transplantation outcome,"[4]; Example 8: living kidney donor, ENO via inhalation or insufflation gas during nephrectomy",successfully transplanted
same,liver transplantation outcome,"[4]; Example 9: brain dead patient, oxygen with 50 ppm ENO via intravascular catheter",successfully transplanted
same,heart transplantation outcome,"[4]; Example 10: ENO 20 ppm, heart harvested 24 hours later",successfully transplanted
same,creatine phosphokinase (CPK) leak (cardiac injury),"[4]; Example 10: patient pronounced dead, ENO 20 ppm",prevented
same,graft rejection,[4]; [7],neither early nor late rejection is observed
same,kidney transplantation outcome,[4]; [7],successfully transplanted
same,renal function,[4]; [7],does not decline
same,organ function of donor,[5],maintained organ function
same,breathing disorder at altitude,[6],not exacerbated
same,dyspnea during commercial flight,[6],breathing normally
same,occurrence of Acute Mountain Sickness,[6],No individuals experiences Acute Mountain Sickness
same,signs of altitude sickness at altitude (prevention),[6],no sign of altitude sickness
same,symptoms of altitude mountain sickness,[6],abate
same,symptoms of high altitude cerebral edema,[6]; iv,abate
same,symptoms of high altitude pulmonary edema,[6]; iv,abate
same,symptoms of altitude mountain sickness,[6]; po,abate
